According to patent US20030162732A1, “Combination of aminosugars and cysteine or cysteine derivatives” (Astion Development A/S, priority 2001, published 2003):

Experiments:
[1] = test system: carrageenin-induced paw oedema; assay: carrageenin-induced paw oedema test in the rat; type: in vivo; conditions: day 0
Description: The objective of this study is to assess the effect of complexes or compositions of the invention in the carrageenin-induced paw oedema test in the rat, a commonly employed method for screening and evaluation of antiinflammatory drugs. Carrageenin, the phlogistic agent of choice for testing antiinflammatory drugs, is a mucopolysaccharide derived from Irish sea moss, Chondrus. Ibuprofen is used as a positive control.
The test article is the complex of the invention prepared according to example 105 (Compound 105 in the following). Compound 105 and Ibuprofen are obtained from Astion A/S, Denmark.
The test article is dissolved in milli-Q water. 0.9% NaCl solution is used as vehicle.
The study is performed in male SPF Sprague Dawley rats of the stock Mol:SPRD from M & B A/S, Tornbjergvej 40, DK-4623 Lille Skensved, Denmark. At start of the acclimatisation period the rats are in the weight range of 80-100 g.
All doses of Compound 105 are administered intraperitoneally in volumes of 20 ml per kg body weight, once daily on day −2 and −1 to groups 2,3 and 4 only and on day 0 to groups 2-6, 0-5 minutes before injection of carrageenin into the foot on day 0. Ibuprofen and vehicle are administered orally by gavage in volumes of 20 ml/kg body weight on day 0, 0-5 minutes before injection of the carrageenin into the foot.
Carrageenin (from Sigma) is prepared as a 1% suspension in sterile 0.9% NaCl-solution. A volume of 0.1 ml is injected through a 25-gauge needle into the plantar tissue of the right hind paw of the rats within 5 minutes after treatment with the test articles.
Immediately before the dosing and carrageenin injection and three and five hours later the foot volume is measured using a plethysmometer LE 7500 from Letica Scientific Instruments, Spain.

[2] = test system: tendonitis of the arm; osteoarthritis of the hips and knees; knee injury involving cartilage damage; assay: small preliminary clinical investigation, three persons, oral aqueous solution of compound 105; type: in vivo, human; conditions: person, normal doses, patient history
Procedure: In a small preliminary clinical investigation three persons administered a pharmaceutical composition according to the invention. The composition was an aqueous solution (100 mg/ml) of compound 105, which is the complex of the invention prepared according to example 105.
One patient was […] and had suffered from tendonitis of the arm for eight months. The symptoms were chronic muscle pain and some degree of immobility of the arm.
The composition of the invention was administered orally corresponding to 3000 mg compound 105 twice a day. […] After a further week of treatment the treatment was discontinued.
Another patient was […] and had suffered from osteoarthritis of the hips and knees for ten years. For some periods the patient had been treated with celecoxib, paracetamol and/or codein to control the pain. The main symptoms were pain and immobility of the joints. The composition of the invention was administered orally corresponding to 3000 mg compound 105 twice a day.
The symptoms were pain and immobility of the knee joint. The composition of the invention was administered orally corresponding to 3000 mg compound 105 twice a day. […] During the next two days the symptoms started reappearing.

**Q.** With `CC(C)Cc1ccc(C(C)C(=O)O)cc1` (centres unmarked) [Ibuprofen] as the molecule, how does the “inhibition of the paw oedema” value ([1]; after 5 hours, 50 mg/kg orally by gavage) read?
**A.** The value was 77%.

**Q.** And the “inhibition of the paw oedema” value ([1]; after 5 hours, 150 mg/kg orally by gavage)?
**A.** Its value is 97%.

**Q.** And the “inhibition of the paw oedema” value ([1]; after three hours, 50 mg/kg orally by gavage)?
**A.** Its value is 37%.

**Q.** And the “inhibition of the paw oedema” value ([1]; after three hours, 150 mg/kg orally by gavage)?
**A.** Its value is 57%.

**Q.** What about the “symptomatic effect of earlier treatment” value [2] of the same molecule?
**A.** Its value is “limited symptomatic effect”.
